Data published in US9598362B2, “Benzidine derivative, method for preparing same, and pharmaceutical composition containing benzidine derivative for treating liver disease caused by hepatitis C virus” (priority 2013, dated 2017).
Where two headings read alike, the source gives them in different places.

Tests used:
[1] = test system: HCV (JFH-5aFlucm4); assay: Evaluation of anti-HCV activity 1: huh7.5.1 cells inoculated with HCV carrying renilla luciferase reporter; format: cell-based; settings: Hepatitis C virus
Method: To evaluate the anti-HCV activity of the compound represented by formula 1 of the present invention, the following experiment was performed.
The hepatoma cell line huh7.5.1 was distributed in a 12-well cell culture plate at the density of 50,000 cells/well. The cells were cultured in DMEM (Dulbecco's Modified Eagle's Medium 12800-017, GIBCO Co.) supplemented with 10% (v/v) FBS (Fetal Bovine Serum SH30406.02, Hyclone Co.) and 1% (v/v) antibiotics (penicillin/streptomycin solution SV30010, Hyclone Co.) in a 37° C. 6.0% CO2 incubator (CO2 Incubator 311, Forma Scientific Co, Lnc. USA) for 24 hours to lead cell attachment on the plate. Then, the cells were inoculated with HCV (JFH-5aFlucm4, PLoS One. 2011; 6(8):e228808.) having renilla luciferase gene as a reporter for 3 hours. Upon completion of the virus inoculation, the cell culture medium was replaced with the medium containing the compounds prepared in Examples 1˜24 at the concentration of 1 μM each. The cells were cultured in a 37° C. 6.0% CO2 incubator (CO2 Incubator 311, Forma Scientific Co, Lnc. USA) for 3 days. Three days after the infection, the cell culture medium was collected to measure the cytotoxicity in the following Experimental Example 3. The cells attached on the plate were washed with PBS (phosphate buffered saline) and then lysed by treating 100 μl of 1× passive lysis buffer (Promega, E1941). The cell lysate (10 μl) was added to renilla luciferase assay reagent (50 μl) in renilla luciferase assay system (Promega, E2820), followed by measurement of luminescence for 10 seconds using the luciferase measure program with Luminometer (GLOMAX 20/20 Luminometer, Promega). At this time, the measurement of luminescence was performed in triplicate with the groups treated with the compounds of Examples 1˜24 and the non-treated control group. The mean value was calculated and compared. The luminescence of each compound over the concentration was converted into EC50 (half maximal effective concentration) by using sigma plot program, and the results are shown in Table 2.

[2] = test system: HCV replicon NK/R2AN; assay: Evaluation of anti-HCV activity 2: inhibition of HCV replication, huh7.5.1 cells with replicon NK/R2AN, renilla luciferase; format: cell-based; settings: for EC50: Hepatitis C virus; for EC50 (in words): duplicated HCV treated with compound
Method: To evaluate the anti-HCV activity, that is the activity to inhibit HCV replication, of the compound represented by formula 1 of the present invention, the following experiment was performed.
The hepatoma cell line huh7.5.1 having NK/R2AN, the replicon with which the replication and translation of HCV could be measured, was distributed in a 12-well cell culture plate at the density of 50,000 cells/well. The cells were cultured in DMEM (Dulbecco's Modified Eagle's Medium 12800-017, GIBCO Co.) supplemented with 10% (v/v) FBS (Fetal Bovine Serum SH30406.02, Hyclone Co.), 1% (v/v) antibiotics (penicillin/streptomycin solution SV30010, Hyclone Co.), and G418 (600 μg/mL, Calbiochem) in a 37° C. 6.0% CO2 incubator (CO2 Incubator 311, Forma Scientific Co, Lnc. USA) for 24 hours to lead cell attachment on the plate. Then, the cells were inoculated with HCV having renilla luciferase gene as a reporter for 3 hours. Upon completion of the virus inoculation, the cell culture medium was replaced with the medium containing the compounds prepared in Examples 1˜24 were added to the culture medium at the concentrations of 40 pM˜1 μM each. The cells were cultured in a 37° C. 6.0% CO2 incubator (CO2 Incubator 311, Forma Scientific Co, Lnc. USA) for 3 days. Three days after the infection, the cell culture medium was collected to measure the cytotoxicity in the following Experimental Example 3. The cells attached on the plate were washed with PBS (phosphate buffered saline) and then lysed by treating 100 μl of 1× passive lysis buffer (Promega, E1941). The cell lysate (10 μl) was added to renilla luciferase assay reagent (50 μl) in renilla luciferase assay system (Promega, E2820), followed by measurement of luminescence for 10 seconds using the luciferase measure program with Luminometer (GLOMAX 20/20 Luminometer, Promega). At this time, the measurement of luminescence was performed in triplicate with the groups treated with the compounds of Examples 1˜24 and the non-treated control group. The mean value was calculated and compared. The luminescence of each compound over the concentration was converted into EC50 (half maximal effective concentration) by using sigma plot program, and the results are shown in Table 3. At this time, when EC50 was under 100 pM, it was marked as A; when EC50 was in the range of 100 pM 1 nM, it was marked as B; when EC50 was in the range of 1 nM˜100 nM, it was marked as C; and when EC50 was over 100 nM, it was marked as D. The results are shown in Table 3.

[3] = Huh-7.5.1, 72 h, read-out: EC50 grade
[4] = Huh-7.5.1, replicon huh7.5.1 cells, Table 3, read-out: EC50

Row | Structure (SMILES) | EC50 [1, 3] | EC50 [2, 3] | EC50 ([1]; Huh-7.5.1) | EC50 [2, 4] | EC50 (in words) [2] | EC50 ([2]; Huh-7.5.1)
1 | COC(=O)N[C@@H](C(=O)N1CCC[C@H]1C(=O)Nc1ccc(-c2ccc(NC(=O)[C@@H]3CCCN3C(=O)[C@H](NC(=O)OC)c3ccccc3)c(C)c2)cc1C)c1ccccc1 [Example 1, dimethyl((1R,1′R)-((2S,2′S)-2,2′-(((3,3′-dimethyl-[1,1′-biphenyl]-4,4′-diyl)bis(azandiyl))bis(carbonyl))bis(pyrrolidine-2,1-diyl))bis(2-oxo-1-phenylethane-2,1-diyl))dicarbamate] | > 100 nM | 1 to 100 nM | – | – | – | –
2 | COC(=O)N[C@@H](C(=O)N1CCC[C@H]1C(=O)Nc1ccc(-c2ccc(NC(=O)[C@@H]3CCCN3C(=O)[C@H](NC(=O)OC)c3ccccc3)cc2C(F)(F)F)c(C(F)(F)F)c1)c1ccccc1 [Example 2, dimethyl((1R,1′R)-((2S,2′S)-2,2′-(((2,2′-bis(trifluoromethyl)-[1,1′-biphenyl]-4,4′-diyl)bis(azandiyl))bis(carbonyl))bis(pyrrolidine-2,1-diyl))bis(2-oxo-1-phenylethane-2,1-diyl))dicarbamate] | < 1 nM | < 0.1 nM | < 1 nM | < 0.1 nM | significantly low | –
3 | COC(=O)N[C@@H](C(=O)N1CCC[C@H]1C(=O)Nc1ccc(-c2ccc(NC(=O)[C@@H]3CCCN3C(=O)[C@H](NC(=O)OC)c3ccccc3)cc2C)c(C)c1)c1ccccc1 [Example 3, dimethyl((1R,1′R)-((2S,2′S)-2,2′-(((2,2′-dimethyl-[1,1′-biphenyl]-4,4′-diyl)bis(azandiyl))bis(carbonyl))bis(pyrrolidine-2,1-diyl))bis(2-oxo-1-phenylethane-2,1-diyl))dicarbamate] | < 1 nM | < 0.1 nM | < 1 nM | < 0.1 nM | significantly low | –
4 | COC(=O)N[C@@H](C(=O)N1CCC[C@H]1C(=O)Nc1ccc2c(c1)Cc1cc(NC(=O)[C@@H]3CCCN3C(=O)[C@H](NC(=O)OC)c3ccccc3)ccc1-2)c1ccccc1 [Example 4, dimethyl((1R,1′R)-((2S,2′S)-2,2′-(((9H-fluorene-2,7-diyl)bis(azandiyl))bis(carbonyl))bis(pyrrolidine-2,1-diyl))bis(2-oxo-1-phenylethane-2,1-diyl))dicarbamate] | 1 to 100 nM | < 0.1 nM | – | – | significantly low | < 0.1 nM
5 | COC(=O)N[C@@H](C(=O)N1CCC[C@H]1C(=O)Nc1ccc(-c2ccc(NC(=O)[C@@H]3CCCN3C(=O)[C@H](NC(=O)OC)c3ccccc3)cc2F)c(F)c1)c1ccccc1 [Example 5, dimethyl((1R,1′R)-((2S,2′S)-2,2′-(((2,2′-difluoro-[1,1′-biphenyl]-4,4′-diyl)bis(azandiyl))bis(carbonyl))bis(pyrrolidine-2,1-diyl))bis(2-oxo-1-phenylethane-2,1-diyl))dicarbamate] | < 1 nM | < 0.1 nM | < 1 nM | < 0.1 nM | significantly low | –
6 | COC(=O)N[C@@H](C(=O)N1CCC[C@H]1C(=O)Nc1ccc(-c2ccc(NC(=O)[C@@H]3CCCN3C(=O)[C@H](NC(=O)OC)c3ccccc3)cc2Cl)c(Cl)c1)c1ccccc1 [Example 6, dimethyl((1R,1′R)-((2S,2′S)-2,2′-(((2,2′-dichloro-[1,1′-biphenyl]-4,4′-diyl)bis(azandiyl))bis(carbonyl))bis(pyrrolidine-2,1-diyl))bis(2-oxo-1-phenylethane-2,1-diyl))dicarbamate] | < 1 nM | < 0.1 nM | < 1 nM | < 0.1 nM | significantly low | –
7 | COC(=O)N[C@@H](C(=O)N1CCC[C@H]1C(=O)Nc1ccc(-c2ccc(NC(=O)[C@@H]3CCCN3C(=O)[C@H](NC(=O)OC)c3ccccc3)cc2Br)c(Br)c1)c1ccccc1 [Example 7, dimethyl((1R,1′R)-((2S,2′S)-2,2′-(((2,2′-dibromo-[1,1′-biphenyl]-4,4′-diyl)bis(azandiyl))bis(carbonyl))bis(pyrrolidine-2,1-diyl))bis(2-oxo-1-phenylethane-2,1-diyl))dicarbamate] | < 1 nM | < 0.1 nM | < 1 nM | < 0.1 nM | significantly low | –
8 | COC(=O)N[C@@H](C(=O)N1CCC[C@@H]1C(=O)Nc1ccc(-c2ccc(NC(=O)[C@H]3CCCN3C(=O)[C@H](NC(=O)OC)c3ccccc3)cc2)cc1)c1ccccc1 [Example 8, dimethyl((1R,1′R)-((2R,2′R)-2,2′-(([1,1′-biphenyl]-4,4′-diylbis(azandiyl))bis(carbonyl))bis(pyrrolidine-2,1-diyl))bis(2-oxo-1-phenylethane-2,1-diyl))dicarbamate] | > 100 nM | 1 to 100 nM | – | – | – | –
9 | COC(=O)N[C@@H](C(=O)N1CCC[C@H]1C(=O)Nc1ccc(-c2ccc(NC(=O)[C@@H]3CCCN3C(=O)[C@H](NC(=O)OC)C(C)C)cc2)cc1)C(C)C [Example 13, dimethyl(2R,2′R)-1,1′-((2S,2′S)-2,2′-(biphenyl-4,4′-diylbis(azandiyl))bis(oxomethylene)bis(pyrrolidine-2,1-diyl))bis(3-methyl-1-oxobutane-2,1-diyl)dicarbamate] | > 100 nM | – | – | – | – | –
10 | O=C(Nc1ccc(-c2ccc(NC(=O)[C@@H]3CCCN3C(=O)[C@H]3CCCO3)cc2)cc1)[C@@H]1CCCN1C(=O)[C@H]1CCCO1 [Example 17] | > 100 nM | – | – | – | – | –
11 | COC(=O)N[C@@H](C)C(=O)N1CCC[C@H]1C(=O)Nc1ccc(-c2ccc(NC(=O)[C@@H]3CCCN3C(=O)[C@H](C)NC(=O)OC)cc2)cc1 [Example 18, dimethyl(2S,2′S)-1,1′-((2S,2′R)-2,2′-(biphenyl-4,4′-diylbis(azandiyl))bis(oxomethylene)bis(pyrrolidine-2,1-diyl))bis(1-oxopropane-2,1-diyl)dicarbamate] | > 100 nM | – | – | – | – | –
12 | COC(=O)N[C@H](C(=O)N1CCC[C@H]1C(=O)Nc1ccc(-c2ccc(NC(=O)[C@@H]3CCCN3C(=O)[C@@H](NC(=O)OC)C(C)(C)C)cc2)cc1)C(C)(C)C [Example 19, dimethyl(2S,2′S)-1,1′-((2S,2′R)-2,2′-(biphenyl-4,4′-diylbis(azandiyl))bis(oxomethylene)bis(pyrrolidine-2,1-diyl))bis(3,3-dimethyl-1-oxobutane-2,1-diyl)dicarbamate] | 1 to 100 nM | – | – | – | – | –
13 | COC(=O)N[C@H](C(=O)N1CCC[C@H]1C(=O)Nc1ccc(-c2ccc(NC(=O)[C@@H]3CCCN3C(=O)[C@@H](NC(=O)OC)C(C)C)cc2)cc1)C(C)C [Example 20, dimethyl(2S,2′S)-1,1′-((2S,2′R)-2,2′-(biphenyl-4,4′-diylbis(azandiyl))bis(oxomethylene)bis(pyrrolidine-2,1-diyl))bis(3-methyl-1-oxobutane-2,1-diyl)dicarbamate] | > 100 nM | – | – | – | – | –
